Source: ChEMBL document CHEMBL1149774, “Synthesis of N-(5,7-diamino-3-phenyl-quinoxalin-2-yl)-3,4,5-substituted anilines and N-[4[(5,7-diamino-3-phenylquinoxalin-2-yl)amino]benzoyl]-l-glutamic acid diethyl ester: evaluation of in vitro anti-cancer and anti-folate activities” (Eur J Med Chem, 2008)

What was measured:
Assay type in all cases: functional
CAKI-1 = assay: Growth inhibition of human CAKI1 cells after 48 hrs by SRB staining method; conditions: CAKI-1, 48 h
SF-268 = assay: Growth inhibition of human SF268 cells after 48 hrs by SRB staining method; conditions: SF-268, 48 h
[1] = Growth inhibition of human HS 578T cells after 48 hrs by SRB staining method
HCT-116 = assay: Growth inhibition of human HCT116 cells after 48 hrs by SRB staining method; conditions: HCT-116, 48 h
T47D = assay: Growth inhibition of human T47D cells after 48 hrs by SRB staining method
ACHN = assay: Growth inhibition of human ACHN cells after 48 hrs by SRB staining method
TK-10 = assay: Growth inhibition of human TK10 cells after 48 hrs by SRB staining method; conditions: TK-10, 48 h
UO-31 = assay: Growth inhibition of human UO31 cells after 48 hrs by SRB staining method; conditions: UO-31, 48 h
OVCAR-3 = assay: Growth inhibition of human OVCAR-3 cells after 48 hrs by SRB staining method; conditions: OVCAR-3, 48 h
HOP-62 = assay: Growth inhibition of human HOP62 cells after 48 hrs by SRB staining method; conditions: HOP-62, 48 h
786-0 = assay: Growth inhibition of human 786-0 cells after 48 hrs by SRB staining method; conditions: 786-0, 48 h
IGROV-1 = assay: Growth inhibition of human IGROV1 cells after 48 hrs by SRB staining method; conditions: IGROV-1, 48 h
OVCAR-5 = assay: Growth inhibition of human OVCAR5 cells after 48 hrs by SRB staining method; conditions: OVCAR-5, 48 h
OVCAR-4 = assay: Growth inhibition of human OVCAR4 cells after 48 hrs by SRB staining method; conditions: OVCAR-4, 48 h
NCI-H522 = assay: Growth inhibition of human NCI-H522 cells after 48 hrs by SRB staining method; conditions: NCI-H522, 48 h
K562 = assay: Growth inhibition of human K562 cells after 48 hrs by SRB staining method; conditions: K562, 48 h
SW-620 = assay: Growth inhibition of human SW620 cells after 48 hrs by SRB staining method; conditions: SW-620, 48 h
NCI-H226 = assay: Growth inhibition of human NCI-H226 cells after 48 hrs by SRB staining method; conditions: NCI-H226, 48 h
UACC-62 = assay: Growth inhibition of human UACC62 cells after 48 hrs by SRB staining method; conditions: UACC-62, 48 h
RPMI-8226 = assay: Growth inhibition of human RPMI8226 cells after 48 hrs by SRB staining method; conditions: RPMI-8226, 48 h
DU-145 = assay: Growth inhibition of human DU145 cells after 48 hrs by SRB staining method; conditions: DU-145, 48 h
NCI/ADR-RES = assay: Growth inhibition of human NCI/ADR-RES cells after 48 hrs by SRB staining method
PC-3 = assay: Growth inhibition of human PC3 cells after 48 hrs by SRB staining method; conditions: PC-3, 48 h
RXF 393 = assay: Growth inhibition of human RXF393 cells after 48 hrs by SRB staining method; conditions: RXF 393, 48 h
SN12C = assay: Growth inhibition of human SN12C cells after 48 hrs by SRB staining method
EKVX = assay: Growth inhibition of human EKVX cells after 48 hrs by SRB staining method
HCT-15 = assay: Growth inhibition of human HCT15 cells after 48 hrs by SRB staining method; conditions: HCT-15, 48 h
NCI-H23 = assay: Growth inhibition of human NCI-H23 cells after 48 hrs by SRB staining method; conditions: NCI-H23, 48 h
SF-295 = assay: Growth inhibition of human SF295 cells after 48 hrs by SRB staining method; conditions: SF-295, 48 h
SNB-19 = assay: Growth inhibition of human SNB19 cells after 48 hrs by SRB staining method; conditions: SNB-19, 48 h
U-251 = assay: Growth inhibition of human U251 cells after 48 hrs by SRB staining method; conditions: U-251, 48 h
SK-MEL-2 = assay: Growth inhibition of human SK-MEL-2 cells after 48 hrs by SRB staining method; conditions: SK-MEL-2, 48 h
[2] = read-out: pLC50 (the source's name) (converted)

## COc1ccc(Nc2nc3cc(N)cc(N)c3nc2-c2ccccc2)cc1OC
CAKI-1
  GI50: 18.2 µM
CAKI-1; [2]
  CC50: > 100 µM
CAKI-1; read-out: pTGI (converted)
  TGI: 66.1 µM
SF-268
  GI50: 14.1 µM
SF-268; [2]
  CC50: > 100 µM
SF-268; read-out: pTGI (converted)
  TGI: 46.8 µM
[1]
  GI50: 18.6 µM
[1]; [2]
  CC50: > 100 µM
[1]; read-out: pTGI (converted)
  TGI: 50.1 µM
HCT-116
  GI50: 14.8 µM
  LC50: 58.9 µM
HCT-116; read-out: pTGI (converted)
  TGI: 29.5 µM
T47D
  GI50: 14.5 µM
T47D; [2]
  CC50: > 100 µM
T47D; read-out: pTGI (converted)
  TGI: 38 µM
ACHN
  GI50: 27.5 µM
ACHN; [2]
  CC50: > 100 µM
ACHN; read-out: pTGI (converted)
  TGI: > 100 µM
TK-10
  GI50: 20.9 µM
TK-10; [2]
  CC50: > 100 µM
TK-10; read-out: pTGI (converted)
  TGI: 58.9 µM
UO-31
  GI50: 28.2 µM
UO-31; [2]
  CC50: > 100 µM
UO-31; read-out: pTGI (converted)
  TGI: > 100 µM
OVCAR-3
  GI50: 30.2 µM
  LC50: > 100 µM
OVCAR-3; read-out: pTGI (converted)
  TGI: > 100 µM
HOP-62
  GI50: 34.7 µM
  LC50: > 100 µM
HOP-62; read-out: pTGI (converted)
  TGI: > 100 µM
786-0
  GI50: 24 µM
786-0; [2]
  CC50: > 100 µM
786-0; read-out: pTGI (converted)
  TGI: 91.2 µM
IGROV-1
  GI50: 24.5 µM
  LC50: > 100 µM
IGROV-1; read-out: pTGI (converted)
  TGI: > 100 µM
OVCAR-5
  GI50: 29.5 µM
  LC50: > 100 µM
OVCAR-5; read-out: pTGI (converted)
  TGI: 72.4 µM
OVCAR-4
  GI50: 18.6 µM
  LC50: > 100 µM
OVCAR-4; read-out: pTGI (converted)
  TGI: 52.5 µM
NCI-H522
  GI50: 28.8 µM
  LC50: > 100 µM
NCI-H522; read-out: pTGI (converted)
  TGI: > 100 µM
K562
  GI50: 20.4 µM
K562; [2]
  CC50: > 100 µM
K562; read-out: pTGI (converted)
  TGI: 70.8 µM
SW-620
  GI50: 15.5 µM
SW-620; [2]
  CC50: 83.2 µM
SW-620; read-out: pTGI (converted)
  TGI: 36.3 µM
NCI-H226
  GI50: 18.6 µM
  LC50: > 100 µM
NCI-H226; read-out: pTGI (converted)
  TGI: 57.5 µM
UACC-62
  GI50: 13.5 µM
  LC50: 56.2 µM
UACC-62; read-out: pTGI (converted)
  TGI: 27.5 µM
RPMI-8226
  GI50: 7.94 µM
RPMI-8226; [2]
  CC50: 87.1 µM
RPMI-8226; read-out: pTGI (converted)
  TGI: 28.2 µM
DU-145
  GI50: 44.7 µM
DU-145; [2]
  CC50: > 100 µM
DU-145; read-out: pTGI (converted)
  TGI: > 100 µM
NCI/ADR-RES
  GI50: 17.4 µM
NCI/ADR-RES; [2]
  CC50: > 100 µM
NCI/ADR-RES; read-out: pTGI (converted)
  TGI: 42.7 µM
PC-3
  GI50: 14.1 µM
PC-3; [2]
  CC50: 93.3 µM
PC-3; read-out: pTGI (converted)
  TGI: 36.3 µM
RXF 393
  GI50: 8.13 µM
RXF 393; [2]
  CC50: > 100 µM
RXF 393; read-out: pTGI (converted)
  TGI: 49 µM
SN12C
  GI50: 16.6 µM
SN12C; [2]
  CC50: > 100 µM
SN12C; read-out: pTGI (converted)
  TGI: 43.7 µM
EKVX
  GI50: 25.7 µM
EKVX; [2]
  CC50: > 100 µM
EKVX; read-out: pTGI (converted)
  TGI: 70.8 µM
HCT-15
  GI50: 28.8 µM
  LC50: > 100 µM
HCT-15; read-out: pTGI (converted)
  TGI: > 100 µM
NCI-H23
  GI50: 26.3 µM
  LC50: > 100 µM
NCI-H23; read-out: pTGI (converted)
  TGI: 79.4 µM
SF-295
  GI50: 17 µM
  LC50: > 100 µM
SF-295; read-out: pTGI (converted)
  TGI: 45.7 µM
SNB-19
  GI50: 35.5 µM
  LC50: > 100 µM
SNB-19; read-out: pTGI (converted)
  TGI: > 100 µM
U-251
  GI50: 25.7 µM
  LC50 (50% lethal concentration): > 100 µM
U-251; read-out: pTGI (converted)
  TGI: > 100 µM
SK-MEL-2
  GI50: 26.9 µM
  LC50: > 100 µM
SK-MEL-2; read-out: pTGI (converted)
  TGI: > 100 µM
